# Tested on: human fibroblasts derived from older donors
# Test: Cell migration of human fibroblasts (wound, crystal violet, occupied surface)
# Format: cell-based
# Conditions: for Cell migration: vs older control (Table 5)
# Experimental: Cell migration is the ability of certain cells to move. In vitro, it is evaluated by the number of cells covering a surface that is initially empty (Kim et al., 2015; Lampugnani, 1999). The migratory capacity of the cells is reduced with age (Boulter et al., 2013).
# Their action was studied on a human fibroblast culture derived from older donors.
# On D0, the human fibroblasts are seeded and incubated at 37° C.
# After several days of culture, the insert is removed from the culture chamber, creating a wound. The cells are treated with an active ingredient according to the invention or the red flower extract or a solution of N-(1-deoxy-1-fructosyl)-proline then incubated at 37° C.
# After several days of culture, the cells are stained with a crystal violet solution at 0.5% (M/V). The viewing is done with an AxioCam MRc camera with microscope coupled to an image analysis system.
# The surface ratio occupied by the cells is calculated automatically using software.
structure (smiles),measurement,setting,value
O=C(CN1CCCC1C(=O)O)C(O)C(O)C(O)CO (stereo not shown) [N-(1-deoxy-1-fructosyl)-proline],Occupied surface ratio,1.5 ppm (Table 5),0.266 UA
same,Cell migration,1.5 ppm,0%
same,Occupied surface ratio,5 ppm (Table 5),0.328 UA
same,Cell migration,5 ppm,+19%

# Source: patent US20250295577A1, “EXTRACT OF YOUNG FLOWERS AND COSMETIC USES” (SOCIETE INDUSTRIELLE LIMOUSINE D'APPLICATION BIOLOGIQUE, priority 2021, published 2025)
